Source: patent US10905691B2, “Use of triazolo(4,5-d)pyrimidine derivatives for prevention and treatment of bacterial infection” (Universite de Liege, priority 2016, dated 2021)

Tests used:
[1] = test system: E. faecalis vancomycin-resistant (VRE) ATCC BAA-2365; assay: MIC determination (EUCAST, Mueller-Hinton broth); assay type: cell-based; details: Enterococcus faecalis
Protocol: (§1) Further experiments were conducted using different strains of E. faecalis, as clinically relevant Gram-positive bacterial strains: E. faecalis vancomycin-resistant (VRE) ATCC BAA-2365, and E. faecalis ATCC 29212 in order to determine the Minimal Inhibitory Concentration (MIC) which is the minimal concentration required to prevent bacterial growth; the Minimal Bactericidal Concentration (MBC) which determines the lowest concentration at which an antimicrobial agent kill a particular microorganism and a Minimum Duration for killing 99.9% bacteria (MDK99.9) which is a tolerance metric according to the EUCAST.
MIC determination: A single colony selected from the different strains of E. faecalis is resuspended and cultured in the appropriate medium overnight (O/N) in aerobic conditions (37° C. with 220 rpm shaking), next day a 1:100 inoculum in Mueller-Hinton broth (MHB) was incubated in aerobic conditions for 3 hr (OD=0.08-0.1) and an inoculum of 1:300 dilution, corresponding to 3×10^5 CFU/ml, was incubated in presence or absence of different concentrations of Triafluocyl in 1% DMSO. […]
The Minimal Inhibitory Concentration (MIC) and the Minimal Bactericidal Concentration (MBC) of Fluometacyl were determined on several gram-positive strains (Table 2) following EUCAST (European Committee on Antimicrobial susceptibility Testing) recommendations. […]

[2] = test system: Glycopeptide intermediate-resistant (GISA) S. aureus Mu-50 (ATCC 700695); assay: MBC and MDK99.9 determination (CFU counting); assay type: cell-based, Staphylococcus aureus; details: for MBC: Staphylococcus aureus, ATCC700695, cut-off 99.9% reduction in CFU
Protocol: as §1, with “S. aureus,” for “E. faecalis,”, “strains:” for “strains: E. faecalis vancomycin-resistant (VRE)”, “25904,” for “BAA-2365, and E. faecalis”, “6538, methilcillin-resistant S. aureus (MRSA) ATCC BAA-1556, Glycopeptide intermediate-resistant (GISA) S. aureus Mu-50 (ATCC 700695)” for “29212”
(§2) MBC and MDK99.9 determination: A single colony selected from the different strains of S. aureus is resuspended and cultured in the appropriate medium (TSB, or BHI) overnight (O/N) in aerobic conditions (37° C. with 220 rpm shaking), next day a 1:100 inoculum in the appropriate medium was incubated in aerobic conditions for 2 h. The culture is then challenged with triafluocyl at MIC concentration or higher concentrations. Bacterial growth was measured after different time intervals by counting the colony-forming units after plating appropriate culture dilutions on BHI agar plates. […] And the real time needed is defined as the MDK99.9. MBC for Triafluocyl against S. aureus ATCC 25904, ATCC 6538, methilcillin-resistant S. aureus (MRSA) ATCC BAA-1556, Glycopeptide intermediate-resistant (GISA), and S. aureus Mu-50 (ATCC 700695) were 20 μg/ml for each of them. MDK99.9 for Triafluocyl against S. aureus ATCC 25904, ATCC 6538, methilcillin-resistant S. aureus (MRSA) ATCC BAA-1556, Glycopeptide intermediate-resistant (GISA), and S. aureus Mu-50 (ATCC 700695) were 10, 6, 2, and 14 hours, respectively.
(§3) For MBC determination a 1:100 inoculum of an O/N culture (prepared like before) was incubated in aerobic conditions for 2 h in bacteria-specific medium. The culture was then challenged with Fluometacyl at the MIC concentration or higher. Bacterial growth was measured after different time intervals by counting the colony-forming units (CFU) after plating appropriate culture dilutions on bacteria-specific medium agar plates.

S. aureus ATCC 25904 = assay: MBC and MDK99.9 determination (CFU counting); assay type: cell-based, Staphylococcus aureus; details: for MBC: Staphylococcus aureus, ATCC25904, cut-off 99.9% reduction in CFU
Protocol: as §1, with “S. aureus,” for “E. faecalis,”, “strains:” for “strains: E. faecalis vancomycin-resistant (VRE)”, “25904,” for “BAA-2365, and E. faecalis”, “6538, methilcillin-resistant S. aureus (MRSA) ATCC BAA-1556, Glycopeptide intermediate-resistant (GISA) S. aureus Mu-50 (ATCC 700695)” for “29212”
as §2, §3

[3] = test system: methilcillin-resistant S. aureus (MRSA) ATCC BAA-1556; assay: MBC and MDK99.9 determination (CFU counting); assay type: cell-based, Staphylococcus aureus; details: for MBC: Staphylococcus aureus, cut-off 99.9% reduction in CFU
Protocol: as §1, with “S. aureus,” for “E. faecalis,”, “strains:” for “strains: E. faecalis vancomycin-resistant (VRE)”, “25904,” for “BAA-2365, and E. faecalis”, “6538, methilcillin-resistant S. aureus (MRSA) ATCC BAA-1556, Glycopeptide intermediate-resistant (GISA) S. aureus Mu-50 (ATCC 700695)” for “29212”
as §2, §3

[4] = test system: Escherichia coli (ATCC 8739); assay: MBC determination with polymyxin B nonapeptide (PMBN); assay type: cell-based; details: ATCC8739, in presence of 40 μg/ml PMBN, read-out: Minimal Bactericidal Concentration (MBC)
Protocol: The MBC represents the lowest concentration of drug required to kill the bacteria in a liquid culture.
The Minimal Bactericidal Concentration (MBC) of Triafluocyl in presence of 40 μg/ml PMBN against Escherichia coli (ATCC 8739) is equal to 5 μg/ml (FIG. 11B).
The Minimal Bactericidal Concentration (MBC) of Fluometacyl in presence of 40 μg/ml PMBN against Escherichia coli (ATCC 8739) is equal to 5 μg/ml (FIG. 12B).

Row | Structure (SMILES) | MIC [1] | MBC ([2]; S. aureus MU50 GISA) [µM] | MBC (S. aureus ATCC 25904) | MBC [3] | MBC [4] [µg/mL] | MDK 99.9 Time (h) needed to kill 99.9% of the started inoculum ([2]; S. aureus Mu50 GISA) [h] | MBC ([2]; S. aureus Mu50 GISA) [µg/mL] | MDK 99.9 Time (h) needed to kill 99.9% of the started inoculum (S. aureus ATCC 25904) [h] | MDK 99.9 Time (h) needed to kill 99.9% of the started inoculum [3] [h]
1 | CCCSc1nc(N[C@@H]2C[C@H]2c2ccc(F)c(F)c2)c2nnn([C@@H]3C[C@H](O)[C@@H](O)[C@H]3O)c2n1 [Fluometacyl, (1S,2R,3S,4R)-4-[7-[[(1R,2S)-2-(3,4-Difluorophenyl)cyclopropyl]amino]-5-(propylthio)-3H-1,2,3-triazolo[4,5-d]pyrimidin-3-yl]-1,2,3-cyclopentanetriol] | 38 µM | 38 | 38 µM | 38 µM | 5 | – | – | – | –
2 | CCCSc1nc(N[C@@H]2C[C@H]2c2ccc(F)c(F)c2)c2nnn([C@@H]3C[C@H](OCCO)[C@@H](O)[C@H]3O)c2n1 [Triafluocyl, (1S,2S,3R,5S)-3-[7-[(1R,2S)-2-(3,4-difluorophenyl)cyclopropylamino]-5-(propylthio)-3H-[1,2,3]-triazolo[4,5-d]pyrimidin-3-yl]-5-(2-hydroxyethoxy)-1,2-cyclopentanediol] | 20 µg/mL | – | 20 µg/mL | 20 µg/mL | 5 | 14 | 20 | 10 | 2
